#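 All cell lines were grown in 96-well plates and treated with compound for 48 hours. GI50 = concentration required for 50% inhibition of growth. TGI denotes the concentration required for complete inhibition of growth.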
# Tests used:
# Assay in all cases: growth of human tumour cells (NCI), 48 h
# [1] = test system: NCI-H226 lung
# [2] = test system: NCI-H23 lung
# [3] = test system: NCI-H460 lung
# [4] = test system: NCI-H522 lung
# [5] = test system: NCI/ADR-RES ovarian
# [6] = test system: OVCAR-3 ovarian
# [7] = test system: OVCAR-4 ovarian
# [8] = test system: OVCAR-5 ovarian
# [9] = test system: OVCAR-8 ovarian
# [10] = test system: PC-3 prostate
# [11] = test system: RPMI-8226 leukemia
# [12] = test system: RXF 393 renal
# [13] = test system: SF-268 CNS
# [14] = test system: SF-295 CNS
# [15] = test system: SF-539 CNS
# [16] = test system: SK-MEL-2 melanoma
# [17] = test system: SK-MEL-28 melanoma
# [18] = test system: SK-MEL-5 melanoma
# [19] = test system: SK-OV-3 ovarian
# [20] = test system: SN12C renal
# [21] = test system: SNB-19 CNS
# [22] = test system: SNB-75 CNS
# [23] = test system: SR leukemia
# [24] = test system: SW-620 colon
# [25] = test system: T-47D breast
# [26] = test system: TK-10 renal
# [27] = test system: U251 CNS
# [28] = test system: UACC-257 melanoma
# [29] = test system: UACC-62 melanoma
# [30] = test system: UO-31 renal
smiles,measurement,setting,value
N#Cc1c(NC(=O)c2ccc(C(F)(F)F)c(Cl)c2)sc2c1CCC(=O)C2,TGI,[1],8.6 µM
same,GI50,[2],1.03 µM
same,TGI,[2],3.01 µM
same,GI50,[3],2.72 µM
same,TGI,[3],8.9 µM
same,GI50,[4],0.346 µM
same,TGI,[4],1.35 µM
same,GI50,[5],1.6 µM
same,TGI,[5],4.19 µM
same,GI50,[6],1.43 µM
same,TGI,[6],2.99 µM
same,GI50,[7],1.32 µM
same,TGI,[7],2.86 µM
same,GI50,[8],1.83 µM
same,TGI,[8],3.87 µM
same,GI50,[9],1.38 µM
same,TGI,[9],3.48 µM
same,GI50,[10],0.448 µM
same,TGI,[10],3.23 µM
same,GI50,[11],0.214 µM
same,TGI,[11],0.736 µM
same,GI50,[12],0.618 µM
same,TGI,[12],1.95 µM
same,GI50,[13],1.78 µM
same,TGI,[13],5.37 µM
same,GI50,[14],1.63 µM
same,TGI,[14],3.41 µM
same,GI50,[15],0.514 µM
same,TGI,[15],1.65 µM
same,GI50,[16],1.94 µM
same,TGI,[16],4.38 µM
same,GI50,[17],1.08 µM
same,TGI,[17],2.57 µM
same,GI50,[18],1.58 µM
same,TGI,[18],2.97 µM
same,GI50,[19],2.12 µM
same,TGI,[19],5.92 µM
same,GI50,[20],0.923 µM
same,TGI,[20],2.74 µM
same,GI50,[21],1.67 µM
same,TGI,[21],4.35 µM
same,GI50,[22],1.35 µM
same,TGI,[22],3.38 µM
same,GI50,[23],0.399 µM
same,TGI,[23],10.3 µM
same,GI50,[24],0.4 µM
same,TGI,[24],1.79 µM
same,GI50,[25],0.599 µM
same,TGI,[25],2.96 µM
same,GI50,[26],2.28 µM
same,TGI,[26],7.43 µM
same,GI50,[27],0.76 µM
same,TGI,[27],2.07 µM
same,GI50,[28],1.7 µM
same,TGI,[28],4.35 µM
same,GI50,[29],1.23 µM
same,TGI,[29],2.66 µM
same,GI50,[30],0.479 µM
same,TGI,[30],1.71 µM

# Source: PubChem BioAssay (NCI)
